# In ChEMBL document CHEMBL1201862, “PubChem BioAssay data set” (2004):
#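 Each compound was tested at five concentrations against cells in 96-well plates for 48 hours. GI50 = concentration required for 50% inhibition of growth.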 The source made the active and inactive calls. No stated cut-off is given here; in the data, active = GI50 up to about 1.1 µM and inactive = higher.
# Key:
# Test in all cases: growth of human tumour cells (NCI), 48 h
# [1] = system: SW-620
# [2] = system: DMS-273
# [3] = system: RXF 393
# [4] = system: K562
# [5] = system: M14
# [6] = system: RXF 631
# [7] = system: TK-10
# [8] = system: OVCAR-5
# [9] = system: SN12C
# [10] = system: HL-60
# [11] = system: LXFL 529
# [12] = system: DLD-1
# [13] = system: Malme-3M
# [14] = system: NCI-H460
# [15] = system: HOP-92
# [16] = system: KM12
# [17] = system: RPMI-8226
# [18] = system: M19-MEL
# [19] = system: IGROV-1
# [20] = system: UACC-62
# [21] = system: UO-31
# [22] = system: HT-29
# [23] = system: U-251
# [24] = system: SF-539
# [25] = system: OVCAR-8
# [26] = system: SNB-78
# [27] = system: MOLT-4
# [28] = system: HCC 2998
# [29] = system: KM-20L2
# [30] = system: HOP-18
# [31] = system: NCI-H226
# [32] = system: XF498
# [33] = system: SF-295
# [34] = system: 786-0
# [35] = system: SK-MEL-5
# [36] = system: SNB-75
# [37] = system: ACHN
# [38] = system: A498
# [39] = system: SK-MEL-28
# [40] = system: SNB-19
# [41] = system: CCRF-CEM
# [42] = system: HOP-62
# [43] = system: SK-OV-3
# [44] = system: OVCAR-4
# [45] = system: SR
# [46] = system: COLO 205
# [47] = system: NCI-H522
# [48] = system: SF-268
# [49] = system: SK-MEL-2
# [50] = system: LOX IMVI
# [51] = system: UACC-257
# [52] = system: NCI-H23
# [53] = system: A549
# [54] = system: HCT-15
# [55] = system: DMS-114
# [56] = system: EKVX
# [57] = system: CAKI-1
# [58] = system: HCT-116
structure (smiles),measurement,setting,value
Cc1cc(Cl)ccc1NC(=O)C(=O)Cc1occc(=O)c1O,GI50,[1],> 100 µM (inactive)
same,GI50,[2],> 100 µM (inactive)
same,GI50,[3],> 100 µM (inactive)
same,GI50,[4],> 100 µM (inactive)
same,GI50,[5],> 100 µM (inactive)
same,GI50,[6],> 100 µM (inactive)
same,GI50,[7],> 100 µM (inactive)
same,GI50,[8],> 100 µM (inactive)
same,GI50,[9],> 100 µM (inactive)
same,GI50,[10],> 100 µM (inactive)
same,GI50,[11],> 100 µM (inactive)
same,GI50,[12],> 100 µM (inactive)
same,GI50,[13],> 100 µM (inactive)
same,GI50,[14],> 100 µM (inactive)
same,GI50,[15],> 100 µM (inactive)
same,GI50,[16],> 100 µM (inactive)
same,GI50,[17],> 100 µM (inactive)
same,GI50,[18],> 100 µM (inactive)
same,GI50,[19],> 100 µM (inactive)
same,GI50,[20],> 100 µM (inactive)
same,GI50,[21],> 100 µM (inactive)
same,GI50,[22],> 100 µM (inactive)
same,GI50,[23],> 100 µM (inactive)
same,GI50,[24],> 100 µM (inactive)
same,GI50,[25],> 100 µM (inactive)
same,GI50,[26],> 100 µM (inactive)
same,GI50,[27],> 100 µM (inactive)
same,GI50,[28],> 100 µM (inactive)
same,GI50,[29],> 100 µM (inactive)
same,GI50,[30],> 100 µM (inactive)
same,GI50,[31],> 100 µM (inactive)
same,GI50,[32],> 100 µM (inactive)
same,GI50,[33],> 100 µM (inactive)
same,GI50,[34],> 100 µM (inactive)
same,GI50,[35],> 100 µM (inactive)
same,GI50,[36],> 100 µM (inactive)
same,GI50,[37],> 100 µM (inactive)
same,GI50,[38],> 100 µM (inactive)
same,GI50,[39],> 100 µM (inactive)
same,GI50,[40],> 100 µM (inactive)
same,GI50,[41],> 100 µM (inactive)
same,GI50,[42],> 100 µM (inactive)
same,GI50,[43],> 100 µM (inactive)
same,GI50,[44],> 100 µM (inactive)
same,GI50,[45],> 100 µM (inactive)
same,GI50,[46],> 100 µM (inactive)
same,GI50,[47],> 100 µM (inactive)
same,GI50,[48],> 100 µM (inactive)
same,GI50,[49],> 100 µM (inactive)
same,GI50,[50],> 100 µM (inactive)
same,GI50,[51],> 100 µM (inactive)
same,GI50,[52],> 100 µM (inactive)
same,GI50,[53],> 100 µM (inactive)
same,GI50,[54],> 100 µM
same,GI50,[55],> 100 µM (inactive)
same,GI50,[56],> 100 µM (inactive)
same,GI50,[57],> 100 µM (inactive)
same,GI50,[58],> 100 µM (inactive)
